# In PMC8226452, “PESIN Conjugates for Multimodal Imaging: Can Multimerization Compensate Charge Influences on Cell Binding Properties? A Case Study” (Pharmaceuticals, 2021):
# Where two headings read alike, the source gives them in different places.
# Assays:
# [1] = not given; remark: listed apart in the source
# [2] = logD by partition between n-octanol and aqueous solution at pH 7.4; type: physicochemical
# Protocol: For the ^68Ga-labeled agents [^68Ga]Ga-2, [^68Ga]Ga-3, [^68Ga]Ga-5, and [^68Ga]Ga-6, and the dyes NIR-820 and 1, the logD values were determined by partition experiments between n-octanol and aqueous solution at pH 7.4.
# Determination of logD. The n-octanol/water partition coefficient (logD) of [^68Ga]Ga-2, [^68Ga]Ga-3, [^68Ga]Ga-5, and [^68Ga]Ga-6 was determined as previously described. In brief, 5 µL of the respective radiolabeled product solutions were added to a mixture of n-octanol (800 µL) and phosphate buffered solution (0.05 M, pH 7.4, 795 µL) and vigorously shaken for 5 min. After separation of the phases by centrifugation, 100 µL of each phase was taken and measured in a γ-counter.
# [3] = biological target: T1, gastrin-releasing peptide receptor (GRPR) (Homo sapiens, UniProt P30550); test: Competitive displacement assay with [125I]I-Tyr4-bombesin on stably GRPR-transfected HEK-293 cells; conditions: 10^5 GRPR-transfected HEK-293 cells per well; radioligand [125I]I-Tyr4-bombesin; 11 competitor concentrations (0.25-500 nM for 5 and 6, 0.1-250 nM for BBN); 1 h at ambient temperature; γ-counting; nonlinear regression; at least three experiments, each in triplicate; read-out: IC50 (GRPR binding affinity)
# T1 construct: host or cells: HEK-293 (human embryonic kidney) cells, stably GRPR-transfected
# Protocol: Human embryonic kidney 293 cells, stably expressing the GRP receptor (GRPR HEK-293 cells), were obtained from Dr. Martin Béhé, Paul Scherrer Institute, Villingen, Switzerland. Cells were cultured using Dulbecco’s modified Eagle’s medium (DMEM, high glucose, GlutaMax-I, 500 mL), geneticin (G418 Sulfate, 50 mg/mL), Opti-MEM I (GlutaMAX I), RPMI 1640 medium and PenStrep from Gibco, fetal calf serum (FCS) from Bio&sell (Feucht, Germany) and Dulbecco’s phosphate buffered saline (PBS), 0.25% Trypsin and 0.02% EDTA solution in PBS from Sigma-Aldrich (Darmstadt, Germany).
# Competitive Receptor Binding Assay. The assays were carried out on stably GRPR-transfected HEK-293 cells as described previously [26, 27]. In brief, 50 µL of a cell suspension containing 10^5 cells was seeded in each well of a Millipore 96-well filter plate. […] After one hour of incubation at ambient temperature, the suspension was filtered and the cells washed thrice with cold PBS. The filter was punched out and measured by γ-counting. […] IC50 values were obtained from at least three different experiments, each performed in triplicate.
# [4] = shake-flask, n-octanol (800 µL)/phosphate buffered solution (0.05 M, pH 7.4, 795 µL), 5 µL of 68Ga-labeled product solution, shaken 5 min, centrifugation, 100 µL of each phase measured in γ-counter, read-out: logD (n-octanol/water partition coefficient)
# T1 sequence (P30550 whole entry, species assumed): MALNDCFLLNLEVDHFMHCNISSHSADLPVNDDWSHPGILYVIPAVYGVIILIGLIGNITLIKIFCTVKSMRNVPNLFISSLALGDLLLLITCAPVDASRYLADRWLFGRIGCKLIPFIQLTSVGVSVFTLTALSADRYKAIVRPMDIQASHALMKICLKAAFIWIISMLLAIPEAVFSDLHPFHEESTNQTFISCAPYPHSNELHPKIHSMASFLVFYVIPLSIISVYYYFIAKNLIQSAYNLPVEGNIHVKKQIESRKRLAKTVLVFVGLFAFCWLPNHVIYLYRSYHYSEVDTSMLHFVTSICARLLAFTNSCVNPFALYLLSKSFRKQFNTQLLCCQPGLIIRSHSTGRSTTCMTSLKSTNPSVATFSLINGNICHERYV
structure (smiles),measurement,setting,value
CSCC[C@H](NC(=O)[C@H](CC(C)C)NC(=O)[C@H](Cc1c[nH]cn1)NC(=O)CNC(=O)[C@@H](NC(=O)[C@H](C)NC(=O)[C@H](Cc1c[nH]c2ccccc12)NC(=O)[C@H](CCC(N)=O)NC(=O)CCOCCOCCOCCOCCNC(=O)CO/N=C/c1ccc(C(=O)NCCCN(CCCNC(=O)c2ccc(/C=N/OCC(=O)NCCOCCOCCOCCOCCC(=O)N[C@@H](CCC(N)=O)C(=O)N[C@@H](Cc3c[nH]c4ccccc34)C(=O)N[C@@H](C)C(=O)N[C@H](C(=O)NCC(=O)N[C@@H](Cc3c[nH]cn3)C(=O)N[C@@H](CC(C)C)C(=O)N[C@@H](CCSC)C(N)=O)C(C)C)cc2)CC(=O)N[C@@H](CSC2CC(=O)N(CCN3C(=O)CC(SC[C@H](NC(=O)[C@H](CCCCNC(=O)c4ccc5c(c4)C(C)(C)C(/C=C/C4=C(c6ccccc6)C(=C/C=C6/N(CCCCS(=O)(=O)O)c7ccc(C(=O)O)cc7C6(C)C)/CCC4)=[N+]5CCCCS(=O)(=O)[O-])NC(=O)CC[C@H](C(=O)O)N4CCN(CC(=O)O)CCN(CC(=O)O)CC4)C(N)=O)C3=O)C2=O)C(=O)NCCOCCOCC(=O)O)cc1)C(C)C)C(N)=O (stereo partly shown),λmax(em),,790 nm
same,Stokes Shift,[1],20 nm
CSCC[C@H](NC(=O)[C@H](CC(C)C)NC(=O)[C@H](Cc1c[nH]cn1)NC(=O)CNC(=O)[C@@H](NC(=O)[C@H](C)NC(=O)[C@H](Cc1c[nH]c2ccccc12)NC(=O)[C@H](CCC(N)=O)NC(=O)CCOCCOCCOCCOCCNC(=O)CO/N=C/c1ccc(C(=O)NCCCN(CCCNC(=O)c2ccc(/C=N/OCC(=O)NCCOCCOCCOCCOCCC(=O)N[C@@H](CCC(N)=O)C(=O)N[C@@H](Cc3c[nH]c4ccccc34)C(=O)N[C@@H](C)C(=O)N[C@H](C(=O)NCC(=O)N[C@@H](Cc3c[nH]cn3)C(=O)N[C@@H](CC(C)C)C(=O)N[C@@H](CCSC)C(N)=O)C(C)C)cc2)CC(=O)N[C@@H](CSC2CC(=O)N(CCN3C(=O)CC(SC[C@H](NC(=O)[C@H](CCCCNC(=O)c4ccc5c(c4)C(C)(C)C(/C=C/C4=C(c6ccccc6)C(=C/C=C6/N(CCCCS(=O)(=O)O)c7ccc(C(=O)O)cc7C6(C)C)/CCC4)=[N+]5CCCCS(=O)(=O)[O-])NC(=O)CC[C@H](C(=O)O)N4CCN(CC(=O)O)CCN(CC(=O)O)CC4)C(N)=O)C3=O)C2=O)C(=O)NCCOCCOCC(=O)O)cc1)C(C)C)C(N)=O (stereo partly shown) [Compound 5],logD (n-octanol/water partition coefficient),"[2]; shake-flask, n-octanol (800 µL)/phosphate buffered solution (0.05 M, pH 7.4, 795 µL), 5 µL of 68Ga-labeled product solution, shaken 5 min, centrifugation, 100 µL of each phase measured in γ-counter",−2.2 ± 0.1
same,IC50,[3],59.1 ± 1.49 nM
"CC1(C)C(/C=C/C2=C(Cl)C(=C/C=C3\N(CCCCS(=O)(=O)[O-])c4ccc(C(=O)O)cc4C3(C)C)/CCC2)=[N+](CCCCS(=O)(=O)[O-])c2ccc(C(=O)O)cc21.[H+] [NIR-820, reference compound]",logD (n-octanol/water partition coefficient),"[2]; unlabeled dyes, comparable n-octanol/water partition experiments at pH 7.4, HPLC analysis of the phases instead of γ-counting",−3.3 ± 0.7
"CC1(C)C(/C=C/C2=C(c3ccccc3)C(=C/C=C3/N(CCCCS(=O)(=O)O)c4ccc(C(=O)NCCCC[C@H](NC(=O)CC[C@H](C(=O)O)N5CCN(CC(=O)O)CCN(CC(=O)O)CC5)C(=O)N[C@@H](CS)C(N)=O)cc4C3(C)C)/CCC2)=[N+](CCCCS(=O)(=O)[O-])c2ccc(C(=O)O)cc21 [[^68Ga]Ga-2, metal not drawn]",logD (n-octanol/water partition coefficient),[2]; pH 7.4,−2.6 ± 0.1
"CC1(C)C(/C=C/C2=C(c3ccccc3)C(=C/C=C3/N(CCCCS(=O)(=O)O)c4ccc(C(=O)NCCCC[C@H](NC(=O)CC[C@H](C(=O)O)N5CCN(CC(=O)O)CCN(CC(=O)O)CC5)C(=O)N[C@@H](CS)C(N)=O)cc4C3(C)C)/CCC2)=[N+](CCCCS(=O)(=O)[O-])c2ccc(C(=O)NCCCC[C@H](NC(=O)CC[C@H](C(=O)O)N3CCN(CC(=O)O)CCN(CC(=O)O)CC3)C(=O)N[C@@H](CS)C(N)=O)cc21 [[^68Ga]Ga-3, metal not drawn]",logD,[2]; pH 7.4,-2.9 ± 0.1
"CSCC[C@H](NC(=O)[C@H](CC(C)C)NC(=O)[C@H](Cc1c[nH]cn1)NC(=O)CNC(=O)[C@@H](NC(=O)[C@H](C)NC(=O)[C@H](Cc1c[nH]c2ccccc12)NC(=O)[C@H](CCC(N)=O)NC(=O)CCOCCOCCOCCOCCNC(=O)CO/N=C/c1ccc(C(=O)NCCCN(CCCNC(=O)c2ccc(/C=N/OCC(=O)NCCOCCOCCOCCOCCC(=O)N[C@@H](CCC(N)=O)C(=O)N[C@@H](Cc3c[nH]c4ccccc34)C(=O)N[C@@H](C)C(=O)N[C@H](C(=O)NCC(=O)N[C@@H](Cc3c[nH]cn3)C(=O)N[C@@H](CC(C)C)C(=O)N[C@@H](CCSC)C(N)=O)C(C)C)cc2)CC(=O)N[C@@H](CSC2CC(=O)N(CCN3C(=O)CC(SC[C@H](NC(=O)[C@H](CCCCNC(=O)c4ccc5c(c4)C(C)(C)C(/C=C/C4=C(c6ccccc6)C(=C/C=C6/N(CCCCS(=O)(=O)O)c7ccc(C(=O)O)cc7C6(C)C)/CCC4)=[N+]5CCCCS(=O)(=O)[O-])NC(=O)CC[C@H](C(=O)O)N4CCN(CC(=O)O)CCN(CC(=O)O)CC4)C(N)=O)C3=O)C2=O)C(=O)NCCOCCOCC(=O)O)cc1)C(C)C)C(N)=O (stereo partly shown) [[^68Ga]Ga-5, metal not drawn]",logD,[2]; [4],-2.2 ± 0.1
"CSCC[C@H](NC(=O)[C@H](CC(C)C)NC(=O)[C@H](Cc1c[nH]cn1)NC(=O)CNC(=O)[C@@H](NC(=O)[C@H](C)NC(=O)[C@H](Cc1c[nH]c2ccccc12)NC(=O)[C@H](CCC(N)=O)NC(=O)CCOCCOCCOCCOCCNC(=O)CO/N=C/c1ccc(C(=O)NCCCN(CCCNC(=O)c2ccc(/C=N/OCC(=O)NCCOCCOCCOCCOCCC(=O)N[C@@H](CCC(N)=O)C(=O)N[C@@H](Cc3c[nH]c4ccccc34)C(=O)N[C@@H](C)C(=O)N[C@H](C(=O)NCC(=O)N[C@@H](Cc3c[nH]cn3)C(=O)N[C@@H](CC(C)C)C(=O)N[C@@H](CCSC)C(N)=O)C(C)C)cc2)CC(=O)N[C@@H](CSC2CC(=O)N(CCN3C(=O)CC(SC[C@H](NC(=O)[C@H](CCCCNC(=O)c4ccc5c(c4)C(C)(C)C(/C=C/C4=C(c6ccccc6)C(=C/C=C6/N(CCCCS(=O)(=O)O)c7ccc(C(=O)NCCCC[C@H](NC(=O)CC[C@H](C(=O)O)N8CCN(CC(=O)O)CCN(CC(=O)O)CC8)C(=O)N[C@@H](CSC8CC(=O)N(CCN9C(=O)CC(SC[C@H](NC(=O)CN(CCCNC(=O)c%10ccc(/C=N/OCC(=O)NCCOCCOCCOCCOCCC(=O)N[C@@H](CCC(N)=O)C(=O)N[C@@H](Cc%11c[nH]c%12ccccc%11%12)C(=O)N[C@@H](C)C(=O)N[C@H](C(=O)NCC(=O)N[C@@H](Cc%11c[nH]cn%11)C(=O)N[C@@H](CC(C)C)C(=O)N[C@@H](CCSC)C(N)=O)C(C)C)cc%10)CCCNC(=O)c%10ccc(/C=N/OCC(=O)NCCOCCOCCOCCOCCC(=O)N[C@@H](CCC(N)=O)C(=O)N[C@@H](Cc%11c[nH]c%12ccccc%11%12)C(=O)N[C@@H](C)C(=O)N[C@H](C(=O)NCC(=O)N[C@@H](Cc%11c[nH]cn%11)C(=O)N[C@@H](CC(C)C)C(=O)N[C@@H](CCSC)C(N)=O)C(C)C)cc%10)C(=O)NCCOCCOCC(=O)O)C9=O)C8=O)C(N)=O)cc7C6(C)C)/CCC4)=[N+]5CCCCS(=O)(=O)[O-])NC(=O)CC[C@H](C(=O)O)N4CCN(CC(=O)O)CCN(CC(=O)O)CC4)C(N)=O)C3=O)C2=O)C(=O)NCCOCCOCC(=O)O)cc1)C(C)C)C(N)=O (stereo partly shown) [[^68Ga]Ga-6, metal not drawn]",Stokes Shift,[1],20 nm
same,logD,[2]; [4],-1.8 ± 0.1
